Measured values: patent US9598396B2, “Tetrahydrophenanthridinones and tetrahydrocyclopentaquinolinones as PARP and tubulin polymerization inhibitors” (Janssen Pharmaceutica NV, priority 2008, dated 2017)

Key:
[1] = system: human prostate cancer PC3 cells; assay: Eb1 Comet (microtubule disruption) assay; assay type: cell-based; details: 1 hour treatment, LAC = concentration where Eb1 foci absent in at least 50% of treated cells
From the text: Example C.6 Eb1 Comet (Microtubule Disruption) Assay
The Eb1 Comet assay relies on the detection of the Eb1 protein at the plus end of polymerizing microtubules (Mimori-Kiyosue, 2000) using indirect immunofluorescence. Disruption of microtubule dynamics through de-polymerization or stabilization results in a de-localization of Eb1 from the growing microtubule ends and this is visualized by the disappearance of Eb1 containing cytoplasmic foci.
Briefly, human prostate cancer PC3 cells obtained from the American Type Culture Collection were grown in 96-well plates (Greiner, cat. no. 655090) in HAM's F12 medium as recommended by the provider (ATCC). The cells were treated for 1 hour at 37° C. with compounds dissolved in DMSO (0.6% final DMSO concentration). The culture medium was then removed by aspiration and the cells were fixed by adding cold methanol (−20 C). After a 15 minutes incubation at −20° C., the cells were washed twice with DPBS (Gibco) containing 0.5% Triton X-100. Mouse Eb1 antibody (BD Transduction Laboratories, cat. no. 610534) was added to the cells (1/250 dilution in DPBS containing 1% BSA) and incubated overnight at room temperature. The antibody was subsequently removed and the cells washed twice with DPBS, 0.5% Triton X-100. Secondary goat anti-mouse antibody conjugated to Alexa 488 fluorescent dye (Molecular Probes) was added at a 1/500 dilution in DPBS, 1% BSA and incubated for 1 hour at 37° C. The cells were washed twice with DPBS, 0.5% Triton X-100 and then DPBS containing 0.5% Triton X-100 and 1/5000 Hoechst 33342 (Molecular Probes) was added. Microscopy based Eb1 foci visualization was carried out using an IN Cell Analyser 1000 (Amersham Biosciences) using a 20× objective. Compound dependent microtubule disruption was visually determined by the disappearance in Eb1 foci. The lowest active concentration (LAC) was determined as the concentration where Eb1 foci were absent in at least 50% of the treated cells. Herein the effects of tested compounds are expressed as pLAC (the negative log value of the LAC value) (see Table 3).

Human PARP-1 enzyme = Human PARP-1 enzyme (Homo sapiens (Human), UniProt P09874); assay: In vitro Scintillation Proximity Assay (SPA) for PARP-1 inhibitory activity; assay type: biochemical; details: nicked DNA activated PARP-1, [3H]-NAD+, biotinylated histones
Method: C.1.In Vitro Scintillation Proximity Assay (SPA) for PARP-1 Inhibitory Activity
Compounds of the present invention were tested in an in vitro assay based on SPA technology (proprietary to GE healthcare).
In principle, the assay relies upon the well established SPA technology for the detection of poly(ADP-ribosyl)ation of biotinylated target proteins, i.e histones. This ribosylation is induced using nicked DNA activated PARP-1 enzyme and [^3H]-nicotinamide adenine dinucleotide ([^3H]-NAD^+) as ADP-ribosyl donor.
Histones (type II-A, supplier: Sigma) were biotinylated using the biotinylation kit of Amersham and stored aliquoted at −20° C. A stock solution of 100 mg/ml SPA poly(vinyl toluene) (PVT) beads (supplier: Amersham) was made in PBS. A stock solution of 61.6 nM […] was made by adding [^3H]-NAD^+ (0.1 mCi/ml, supplier: Perkin Elmer) to incubation buffer (50 mM Tris/HCl, pH 8; 0.2 mM DTT; 4 mM MgCl2). A solution of 4 mM NAD^+ (supplier: Sigma) was made. Human PARP-1 enzyme was obtained from Trevigen. Biotinylated histones and PVT-SPA beads were mixed and pre-incubated for 30 minutes at room temperature. PARP-1 enzyme (concentration was lot dependent) was mixed with the nicked DNA and the mixture was pre-incubated for 30 minutes at 4° C. Equal parts of this histones/PVT-SPA beads solution and PARP-1 enzyme/DNA solution were mixed and 75 μl of this mixture together with 1 μl of compound in DMSO and 25 μl of [^3H]-NAD^+was added per well into a 96-well microtiterplate. The final concentrations in the incubation mixture were 2 μg/ml for the biotinylated histones, 2 mg/ml for the PVT-SPA beads, 0.25 μg/ml for the nicked DNA and between 0.1-0.2 μg/ml for the PARP-1 enzyme. After incubation of the mixture for 20 minutes at room temperature, the reaction was terminated by adding 100 μl of 4 mM NAD^+ in water (final concentration 2 mM) and plates were mixed. The beads were sedimented by centrifugation (10 min, 800 rpm) and plates transferred to a TopCountNXT™ (Packard) for scintillation counting, values were expressed as counts per minute (cpm). For each experiment, controls (containing PARP-1 enzyme and DMSO without compound), a blank incubation (containing DMSO but no PARP-1 enzyme, no DNA or compound) and samples (containing PARP-1 enzyme, DNA and compound dissolved in DMSO) were run in parallel. All compounds tested were dissolved and eventually further diluted in DMSO. A dose-response curve was made wherein the compounds were tested at concentrations between 10^−5M and 3×10^−9M. In each test, the blank value was subtracted from both the control and the sample values. The control sample represented maximal PARP-1 enzyme activity. For each sample, the amount of cpm was expressed as a percentage of the mean cpm value of the controls. […] Herein the effects of test compounds are expressed as pIC50 (the negative log value of the IC50-value). As a reference compound, 4-amino-1,8-naphthalimide was included to validate the SPA assay.

Sequence of Human PARP-1 enzyme (P09874 whole entry): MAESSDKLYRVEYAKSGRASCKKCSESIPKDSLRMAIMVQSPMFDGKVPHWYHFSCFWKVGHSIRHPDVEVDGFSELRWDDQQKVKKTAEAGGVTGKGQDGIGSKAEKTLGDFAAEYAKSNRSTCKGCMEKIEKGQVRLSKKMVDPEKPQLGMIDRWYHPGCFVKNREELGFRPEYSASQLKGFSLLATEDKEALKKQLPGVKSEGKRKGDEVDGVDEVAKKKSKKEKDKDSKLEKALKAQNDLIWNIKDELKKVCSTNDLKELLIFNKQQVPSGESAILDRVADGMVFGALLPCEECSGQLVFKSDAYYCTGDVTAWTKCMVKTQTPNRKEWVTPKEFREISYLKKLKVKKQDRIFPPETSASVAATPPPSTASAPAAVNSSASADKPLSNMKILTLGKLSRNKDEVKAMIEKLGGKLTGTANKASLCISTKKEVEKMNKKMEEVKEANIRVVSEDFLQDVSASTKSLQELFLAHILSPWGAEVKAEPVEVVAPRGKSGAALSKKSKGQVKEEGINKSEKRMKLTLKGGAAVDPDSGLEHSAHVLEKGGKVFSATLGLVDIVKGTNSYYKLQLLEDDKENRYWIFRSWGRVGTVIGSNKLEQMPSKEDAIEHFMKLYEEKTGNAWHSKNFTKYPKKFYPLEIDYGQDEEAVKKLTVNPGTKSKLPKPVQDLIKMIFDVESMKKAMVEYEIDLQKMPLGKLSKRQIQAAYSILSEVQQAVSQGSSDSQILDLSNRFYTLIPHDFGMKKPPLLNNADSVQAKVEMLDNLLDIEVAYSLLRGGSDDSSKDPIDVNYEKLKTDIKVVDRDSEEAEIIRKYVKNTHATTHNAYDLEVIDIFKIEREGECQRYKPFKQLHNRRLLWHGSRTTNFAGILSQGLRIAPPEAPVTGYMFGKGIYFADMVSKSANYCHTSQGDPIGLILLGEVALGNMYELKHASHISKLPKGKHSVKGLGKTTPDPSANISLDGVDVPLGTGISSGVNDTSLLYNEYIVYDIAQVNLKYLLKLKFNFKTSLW

| SMILES | in vitro SPA assay PARP-1 pIC50 (Human PARP-1 enzyme) | Cellular assay Eb1 pLAC [1] |
| --- | --- | --- |
| CC(C#N)(Cc1cccc(C#N)n1)c1ccc2c3c(c(=O)[nH]c2c1)CCCC3 (centres unmarked) [Co. No. 7] | 8.38 | 7.5 |
| CC(C#N)(Cc1cccc(Cl)c1)c1ccc2c3c(c(=O)[nH]c2c1)CCCC3 (centres unmarked) [Co. No. 8] | 7.08 | – |
| CC(C#N)(Cc1cccc(F)c1)c1ccc2c3c(c(=O)[nH]c2c1)CCCC3 (centres unmarked) [Co. No. 5] | 9.01 | 7 |
| CC(C#N)(Cc1cccc(C#N)c1)c1ccc2c3c(c(=O)[nH]c2c1)CCCC3 (centres unmarked) [Co. No. 4] | 9.03 | – |

More lines, main results first:

| in vitro SPA assay PARP-1 pIC50 (Human PARP-1 enzyme) | SMILES | Cellular assay Eb1 pLAC [1] |
| --- | --- | --- |
| 7.44 | CC(C#N)(Cc1ccccc1)c1ccc2c3c(c(=O)[nH]c2c1)CCCC3 (centres unmarked) [Co. No. 1] | – |
| 7.35 | CC(C#N)(CCOc1ccc(C#N)cc1)c1ccc2c3c(c(=O)[nH]c2c1)CCCC3 (centres unmarked) [Co. No. 17] | – |
